Test system: vasopressor response of angiotensin II
Test: AII Challenge: antagonism of angiotensin II vasopressor response;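 on Response Average Change: post-dose Angiotensin II-evoked rise in systolic blood pressure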
Format: in vivo
Conditions: for inhibition in vivo at 3 mg/kg / inhibition in vivo at 5 mg/kg: Rattus norvegicus; for inhibition in vivo at 3 mg/kg: iv; for inhibition in vivo at 5 mg/kg: po
Source text: Conscious Male Okamoto-Aoki SHR, 16-20 weeks old, weighing approximately 330 g are purchased from Charles River Labs (Wilmington, Mass.). Conscious rats are restrained in a supine position with elastic tape. The area at the base of the tail is locally anesthetized by subcutaneous infiltration with 2% procaine. The ventral caudal artery and vein are isolated, and a cannula made of polyethylene (PE) 10-20 tubing (fused together by heat) is passed into the lower abdominal aorta and vena cava, respectively. The cannula is secured, heparinized (1,000 I.U./ml), sealed and the wound is closed. The animals are placed in plastic restraining cages in an upright position. The cannula is attached to a Statham P23 Db pressure transducer, and pulsatile blood pressure is recorded to 10-15 minutes with a Gould Brush recorder. (Chan et al., (Drug Development Res., 18:75-94, 1989). Angiotensin II (human sequence, Sigma Chem. Co., St. Louis, Mo.) of 0.05 and 0.1 ug/kg i.v. is injected into all rats (predosing response). Then a test compound, vehicle or a known angiotensin II antagonist is administered i.v., i.p. or orally to each set of rats. The two doses of angiotensin II are given to each rat again at 30, 60, 90, 120, 180, 240 and 300 minutes post dosing the compound or vehicle. The vasopressor response of angiotensin II is measured for the increase in systolic blood pressure in mmHg. The percentage of antagonism or blockade of the vasopressor response of angiotensin II by a compound is calculated using the vasopressor response (increase in systolic blood pressure) of angiotensin II of each rat predosing the compound as 100%.

## CCCCc1nc2ccc([C@@H]3C[C@H]4CCCN4O3)cc2c(=O)n1Cc1ccc(-c2ccccc2-c2nnn[nH]2)cc1 (racemic) [Example 57, Cis-(+/-)-2-Butyl-6-(hexahydropyrrolo[1,2-b]isoxazol-2-yl)-3-[[2'-(1H-tetrazol-5-yl)[1,1'-biphenyl]-4-yl]methyl]-4(3H)-quinazolinone]
3 mg/kg I.V., AII 0.05 mcg/kg IV, 30 min post dose
  Response Average Change: 12.5 mmHg
3 mg/kg I.V., AII 0.05 mcg/kg IV, 60 min post dose
  Response Average Change: 22.5 mmHg
3 mg/kg I.V., AII 0.05 mcg/kg IV, 90 min post dose
  Response Average Change: 20 mmHg
3 mg/kg I.V., AII 0.05 mcg/kg IV, 120 min post dose
  Response Average Change: 17.5 mmHg
3 mg/kg I.V., AII 0.05 mcg/kg IV, 180 min post dose
  Response Average Change: 36 mmHg
3 mg/kg I.V., AII 0.1 mcg/kg IV, 30 min post dose
  Response Average Change: 7.5 mmHg
3 mg/kg I.V., AII 0.1 mcg/kg IV, 60 min post dose
  Response Average Change: 15 mmHg
3 mg/kg I.V., AII 0.1 mcg/kg IV, 90 min post dose
  Response Average Change: 20 mmHg
3 mg/kg I.V., AII 0.1 mcg/kg IV, 120 min post dose
  Response Average Change: 37.5 mmHg
3 mg/kg I.V., AII 0.1 mcg/kg IV, 180 min post dose
  Response Average Change: 44 mmHg
5 mg/kg P.O., AII 0.05 mcg/kg IV, 30 min post dose
  Response Average Change: 31.5 mmHg
5 mg/kg P.O., AII 0.05 mcg/kg IV, 60 min post dose
  Response Average Change: 25 mmHg
5 mg/kg P.O., AII 0.05 mcg/kg IV, 90 min post dose
  Response Average Change: 32.5 mmHg
5 mg/kg P.O., AII 0.05 mcg/kg IV, 120 min post dose
  Response Average Change: 20 mmHg
5 mg/kg P.O., AII 0.05 mcg/kg IV, 180 min post dose
  Response Average Change: 20 mmHg
5 mg/kg P.O., AII 0.05 mcg/kg IV, 240 min post dose
  Response Average Change: 20 mmHg
5 mg/kg P.O., AII 0.05 mcg/kg IV, 300 min post dose
  Response Average Change: 22.5 mmHg
5 mg/kg P.O., AII 0.1 mcg/kg IV, 30 min post dose
  Response Average Change: 22.5 mmHg
5 mg/kg P.O., AII 0.1 mcg/kg IV, 60 min post dose
  Response Average Change: 29 mmHg
5 mg/kg P.O., AII 0.1 mcg/kg IV, 90 min post dose
  Response Average Change: 29.5 mmHg
5 mg/kg P.O., AII 0.1 mcg/kg IV, 120 min post dose
  Response Average Change: 25 mmHg
5 mg/kg P.O., AII 0.1 mcg/kg IV, 180 min post dose
  Response Average Change: 41.5 mmHg
5 mg/kg P.O., AII 0.1 mcg/kg IV, 240 min post dose
  Response Average Change: 40 mmHg
5 mg/kg P.O., AII 0.1 mcg/kg IV, 300 min post dose
  Response Average Change: 42.5 mmHg
0.5 h, 3 mg/kg I.V., AII 0.05 mcg/kg IV, 30 min post dose
  inhibition in vivo at 3 mg/kg: 67%
0.5 h, 3 mg/kg I.V., AII 0.1 mcg/kg IV, 30 min post dose
  inhibition in vivo at 3 mg/kg: 81%
1 h, 3 mg/kg I.V., AII 0.05 mcg/kg IV, 60 min post dose
  inhibition in vivo at 3 mg/kg: 40%
1 h, 3 mg/kg I.V., AII 0.1 mcg/kg IV, 60 min post dose
  inhibition in vivo at 3 mg/kg: 63%
2 h, 3 mg/kg I.V., AII 0.05 mcg/kg IV, 120 min post dose
  inhibition in vivo at 3 mg/kg: 57%
2 h, 3 mg/kg I.V., AII 0.1 mcg/kg IV, 120 min post dose
  inhibition in vivo at 3 mg/kg: 17%
3 h, 3 mg/kg I.V., AII 0.05 mcg/kg IV, 180 min post dose
  inhibition in vivo at 3 mg/kg: 11%
3 h, 3 mg/kg I.V., AII 0.1 mcg/kg IV, 180 min post dose
  inhibition in vivo at 3 mg/kg: 2%
[…], 3 mg/kg I.V., AII 0.05 mcg/kg IV, 90 min post dose
  inhibition in vivo at 3 mg/kg: 47%
[…], 3 mg/kg I.V., AII 0.1 mcg/kg IV, 90 min post dose
  inhibition in vivo at 3 mg/kg: 50%
0.5 h, 5 mg/kg P.O., AII 0.05 mcg/kg IV, 30 min post dose
  inhibition in vivo at 5 mg/kg: 26%
0.5 h, 5 mg/kg P.O., AII 0.1 mcg/kg IV, 30 min post dose
  inhibition in vivo at 5 mg/kg: 47%
1 h, 5 mg/kg P.O., AII 0.05 mcg/kg IV, 60 min post dose
  inhibition in vivo at 5 mg/kg: 41%
1 h, 5 mg/kg P.O., AII 0.1 mcg/kg IV, 60 min post dose
  inhibition in vivo at 5 mg/kg: 32%
2 h, 5 mg/kg P.O., AII 0.05 mcg/kg IV, 120 min post dose
  inhibition in vivo at 5 mg/kg: 53%
2 h, 5 mg/kg P.O., AII 0.1 mcg/kg IV, 120 min post dose
  inhibition in vivo at 5 mg/kg: 41%
3 h, 5 mg/kg P.O., AII 0.05 mcg/kg IV, 180 min post dose
  inhibition in vivo at 5 mg/kg: 53%
3 h, 5 mg/kg P.O., AII 0.1 mcg/kg IV, 180 min post dose
  inhibition in vivo at 5 mg/kg: 2%
4 h, 5 mg/kg P.O., AII 0.05 mcg/kg IV, 240 min post dose
  inhibition in vivo at 5 mg/kg: 53%
4 h, 5 mg/kg P.O., AII 0.1 mcg/kg IV, 240 min post dose
  inhibition in vivo at 5 mg/kg: 6%
5 h, 5 mg/kg P.O., AII 0.05 mcg/kg IV, 300 min post dose
  inhibition in vivo at 5 mg/kg: 47%
5 h, 5 mg/kg P.O., AII 0.1 mcg/kg IV, 300 min post dose
  inhibition in vivo at 5 mg/kg: 0%
[…], 5 mg/kg P.O., AII 0.05 mcg/kg IV, 90 min post dose
  inhibition in vivo at 5 mg/kg: 24%
[…], 5 mg/kg P.O., AII 0.1 mcg/kg IV, 90 min post dose
  inhibition in vivo at 5 mg/kg: 31%

Source: patent US5358951A, “Angiotensin II receptor blocking 2, 3, 6 substituted quinazolinones” (American Cyanamid Company, priority 1993, dated 1994)
